Assay: method code SF-HPLC, from DOI: 10.1021/ac9902291

Point of comparison: `c1cc2ccc3cccc4sc(c1)c2c34`, logP 4.95. Against it:
- Cc1cccc2ccsc12 — lower, 3.85
- c1ccc2c(c1)ccc1ccsc12 — lower, 4.55
- O=S1(=O)C=Cc2ccccc21 — lower, 1.01
- Cc1cccc2sccc12 — lower, 3.57
- c1ccc2c(c1)sc1ccccc12 — lower, 4.36
- Cc1cc2ccccc2s1 — lower, 3.71
- c1ccc2cc3sccc3cc2c1 — lower, 4.5
- c1ccc2c(c1)ccc1sc3ccccc3c12 — higher, 5.19
- c1ccc2c(c1)ccc1sccc12 — lower, 4.41
- c1ccc2c(c1)ccc1c3ccsc3ccc21 — higher, 5.35

— the SangsterLogP compilation
